Literature values as cited in patent US11980625B2, “Ganaxolone for use in treating tuberous sclerosis complex” (Marinus Pharmaceuticals, Inc., priority 2019, dated 2024).
Where two headings read alike, the source gives them in different places.

Columns and labels:
[1] = system: patients with TSC-related epilepsy; settings: 18 weeks, cited from earlier work
[2] = human plasma; cited from earlier work
[3] = system: patients with TSC-related epilepsy; settings: Phase 2, open-label, 3 months; cited from earlier work
[4] = system: patients with TSC-related epilepsy; settings: 16 weeks, cited from earlier work

SMILES: CO[C@H]1C[C@@H]2CC[C@@H](C)[C@@](O)(O2)C(=O)C(=O)N2CCCC[C@H]2C(=O)O[C@H]([C@H](C)C[C@@H]2CC[C@@H](OCCO)[C@H](OC)C2)CC(=O)[C@H](C)/C=C(\C)[C@@H](O)[C@@H](OC)C(=O)[C@H](C)C[C@H](C)/C=C/C=C/C=C/1C [AFINITOR ®]
- Median % change in seizure freq (Drug Response) ([1]; Phase 3, High-exposure): High-exposure: −39.6%
- Median % change in seizure freq (Drug Response) ([1]; Phase 3, Low-exposure): Low-exposure: −29.3%

SMILES: CC(=O)[C@H]1CC[C@H]2[C@@H]3CC[C@H]4C[C@H](O)CC[C@]4(C)[C@H]3CC[C@]12C [Allopregnanolone, 3α,5α-tetrahydroprogesterone, reference compound]
- half-life [2]: about 45 minutes

SMILES: C=C(C)[C@@H]1CCC(C)=C[C@H]1c1c(O)cc(CCCCC)cc1O [EPIDIOLEX ®]
- Median % change in seizure freq (Drug Response) [3]: −48.8%
- Median % change in seizure freq (Drug Response) ([4]; Phase 3, 25 mg/kg/day): 25 mg/kg/day: −48.6%
- Median % change in seizure freq (Drug Response) ([4]; Phase 3, High-exposure): High-exposure: −47.5%
